Source: ChEMBL document CHEMBL1201862, “PubChem BioAssay data set” (2004)
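48-hour exposure; five concentrations; linearly interpolated endpoints. Abbreviation: GI50, concentration required for 50% inhibition of growth.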 Active and inactive are the calls of the source. Cut-off read from the data, not from the text of the source: active = GI50 up to about 1.1 µM and inactive = higher.

Tests used:
Assay in all cases: inhibition of tumour cell growth, NCI panel, 48 h
[1] = system: A498
[2] = system: A549
[3] = system: ACHN
[4] = system: CAKI-1
[5] = system: CCRF-CEM
[6] = system: COLO 205
[7] = system: DLD-1
[8] = system: DMS-114
[9] = system: DMS-273
[10] = system: EKVX
[11] = system: HCC 2998
[12] = system: HCT-116
[13] = system: HCT-15
[14] = system: HL-60
[15] = system: HOP-62
[16] = system: HOP-92
[17] = system: HT-29
[18] = system: IGROV-1
[19] = system: K562
[20] = system: KM-20L2
[21] = system: KM12
[22] = system: LOX IMVI
[23] = system: LXFL 529
[24] = system: M14
[25] = system: M19-MEL
[26] = system: MOLT-4
[27] = system: NCI-H226
[28] = system: NCI-H23
[29] = system: NCI-H460
[30] = system: NCI-H522
[31] = system: OVCAR-4
[32] = system: OVCAR-5
[33] = system: OVCAR-8
[34] = system: RPMI-8226
[35] = system: RXF 393
[36] = system: SF-268
[37] = system: SF-295
[38] = system: SF-539
[39] = system: SK-MEL-28
[40] = system: SK-MEL-2
[41] = system: SK-MEL-5
[42] = system: SK-OV-3
[43] = system: SN12C
[44] = system: SNB-19
[45] = system: SNB-75
[46] = system: SNB-78
[47] = system: SR
[48] = system: SW-620
[49] = system: TK-10
[50] = system: U-251
[51] = system: UACC-257
[52] = system: UACC-62
[53] = system: UO-31
[54] = system: XF498
[55] = system: 786-0
[56] = system: HOP-18
[57] = system: Malme-3M
[58] = system: OVCAR-3

## O=C(NC1C=Nc2ccc([N+](=O)[O-])cc2NC1=O)c1cc(Cl)cc([N+](=O)[O-])c1 (stereo unspecified)
[1]
  GI50: > 100 µM (inactive)
[2]
  GI50: > 100 µM (inactive)
[3]
  GI50: > 100 µM (inactive)
[4]
  GI50: > 100 µM (inactive)
[5]
  GI50: 20.8 µM (inactive)
[6]
  GI50: 59.3 µM (inactive)
[7]
  GI50: > 100 µM (inactive)
[8]
  GI50: 19.7 µM (inactive)
[9]
  GI50: 99.5 µM (inactive)
[10]
  GI50: 94.8 µM (inactive)
[11]
  GI50: > 100 µM (inactive)
[12]
  GI50: > 100 µM (inactive)
[13]
  GI50: > 100 µM
[14]
  GI50: 12.9 µM (inactive)
[15]
  GI50: > 100 µM (inactive)
[16]
  GI50: > 100 µM (inactive)
[17]
  GI50: > 100 µM (inactive)
[18]
  GI50: > 100 µM (inactive)
[19]
  GI50: 38.8 µM (inactive)
[20]
  GI50: > 100 µM (inactive)
[21]
  GI50: 54.3 µM (inactive)
[22]
  GI50: > 100 µM (inactive)
[23]
  GI50: > 100 µM (inactive)
[24]
  GI50: > 100 µM (inactive)
[25]
  GI50: > 100 µM (inactive)
[26]
  GI50: 41.6 µM (inactive)
[27]
  GI50: > 100 µM (inactive)
[28]
  GI50: > 100 µM (inactive)
[29]
  GI50: > 100 µM (inactive)
[30]
  GI50: 8.65 µM (inactive)
[31]
  GI50: > 100 µM (inactive)
[32]
  GI50: > 100 µM (inactive)
[33]
  GI50: > 100 µM (inactive)
[34]
  GI50: 44.2 µM (inactive)
[35]
  GI50: > 100 µM (inactive)
[36]
  GI50: > 100 µM (inactive)
[37]
  GI50: > 100 µM (inactive)
[38]
  GI50: > 100 µM (inactive)
[39]
  GI50: > 100 µM (inactive)
[40]
  GI50: > 100 µM (inactive)
[41]
  GI50: > 100 µM (inactive)
[42]
  GI50: > 100 µM (inactive)
[43]
  GI50: > 100 µM (inactive)
[44]
  GI50: > 100 µM (inactive)
[45]
  GI50: > 100 µM (inactive)
[46]
  GI50: > 100 µM (inactive)
[47]
  GI50: 72.3 µM (inactive)
[48]
  GI50: > 100 µM (inactive)
[49]
  GI50: > 100 µM (inactive)
[50]
  GI50: > 100 µM (inactive)
[51]
  GI50: > 100 µM (inactive)
[52]
  GI50: 44.2 µM (inactive)
[53]
  GI50: > 100 µM (inactive)
[54]
  GI50: > 100 µM (inactive)

## O=C(CCc1nnc2s/c(=C\c3ccc(Cl)c(Cl)c3)c(=O)n12)Nc1ccc(Cl)c(Cl)c1
[55]
  GI50: > 100 µM (inactive)
[1]
  GI50: 39 µM (inactive)
[2]
  GI50: > 100 µM (inactive)
[3]
  GI50: > 100 µM (inactive)
[4]
  GI50: > 100 µM (inactive)
[5]
  GI50: 22.5 µM (inactive)
[6]
  GI50: 56.6 µM (inactive)
[8]
  GI50: 91.2 µM (inactive)
[10]
  GI50: > 100 µM (inactive)
[11]
  GI50: > 100 µM (inactive)
[12]
  GI50: > 100 µM (inactive)
[13]
  GI50: > 100 µM
[14]
  GI50: 22.8 µM (inactive)
[56]
  GI50: 75.7 µM (inactive)
[15]
  GI50: > 100 µM (inactive)
[16]
  GI50: 86.7 µM (inactive)
[17]
  GI50: > 100 µM (inactive)
[18]
  GI50: 44.2 µM (inactive)
[19]
  GI50: 72.8 µM (inactive)
[20]
  GI50: > 100 µM (inactive)
[21]
  GI50: 43.4 µM (inactive)
[22]
  GI50: 19.2 µM (inactive)
[23]
  GI50: 88.1 µM (inactive)
[24]
  GI50: > 100 µM (inactive)
[25]
  GI50: 64.7 µM (inactive)
[26]
  GI50: 20.7 µM (inactive)
[57]
  GI50: > 100 µM (inactive)
[27]
  GI50: > 100 µM (inactive)
[28]
  GI50: > 100 µM (inactive)
[29]
  GI50: > 100 µM (inactive)
[30]
  GI50: 25.1 µM (inactive)
[58]
  GI50: 29.9 µM (inactive)
[31]
  GI50: 73.5 µM (inactive)
[32]
  GI50: > 100 µM (inactive)
[33]
  GI50: 20.4 µM (inactive)
[34]
  GI50: 20.4 µM (inactive)
[35]
  GI50: 28.8 µM (inactive)
[36]
  GI50: 55.5 µM (inactive)
[37]
  GI50: 46.1 µM (inactive)
[38]
  GI50: 51.8 µM (inactive)
[39]
  GI50: > 100 µM (inactive)
[41]
  GI50: 43.9 µM (inactive)
[42]
  GI50: > 100 µM (inactive)
[43]
  GI50: > 100 µM (inactive)
[44]
  GI50: 45 µM (inactive)
[45]
  GI50: 58.3 µM (inactive)
[47]
  GI50: 24.8 µM (inactive)
[48]
  GI50: > 100 µM (inactive)
[49]
  GI50: > 100 µM (inactive)
[50]
  GI50: 36.9 µM (inactive)
[51]
  GI50: > 100 µM (inactive)
[52]
  GI50: > 100 µM (inactive)
[53]
  GI50: > 100 µM (inactive)
[54]
  GI50: 38.7 µM (inactive)

## C[C@]12CCC(=O)C=C1CC[C@@H]1[C@@H]2C(=O)C[C@@]2(C)[C@H]1CC[C@]2(O)C(=O)CO [CORTISONE]
[55]
  GI50: > 100 µM (inactive)
[1]
  GI50: > 100 µM (inactive)
[2]
  GI50: > 100 µM (inactive)
[3]
  GI50: > 100 µM (inactive)
[4]
  GI50: > 100 µM (inactive)
[5]
  GI50: > 100 µM (inactive)
[6]
  GI50: > 100 µM (inactive)
[7]
  GI50: > 100 µM (inactive)
[8]
  GI50: > 100 µM (inactive)
[9]
  GI50: > 100 µM (inactive)
[10]
  GI50: > 100 µM (inactive)
[11]
  GI50: > 100 µM (inactive)
[12]
  GI50: > 100 µM (inactive)
[13]
  GI50: > 100 µM
[14]
  GI50: > 100 µM (inactive)
[56]
  GI50: > 100 µM (inactive)
[16]
  GI50: > 100 µM (inactive)
[17]
  GI50: > 100 µM (inactive)
[18]
  GI50: > 100 µM (inactive)
[19]
  GI50: > 100 µM (inactive)
[20]
  GI50: > 100 µM (inactive)
[21]
  GI50: > 100 µM (inactive)
[23]
  GI50: > 100 µM (inactive)
[24]
  GI50: > 100 µM (inactive)
[25]
  GI50: > 100 µM (inactive)
[26]
  GI50: > 100 µM (inactive)
[57]
  GI50: > 100 µM (inactive)
[27]
  GI50: > 100 µM (inactive)
[28]
  GI50: > 100 µM (inactive)
[29]
  GI50: > 100 µM (inactive)
[30]
  GI50: > 100 µM (inactive)
[58]
  GI50: > 100 µM (inactive)
[31]
  GI50: > 100 µM (inactive)
[33]
  GI50: > 100 µM (inactive)
[34]
  GI50: > 100 µM (inactive)
[35]
  GI50: > 100 µM (inactive)
[36]
  GI50: > 100 µM (inactive)
[37]
  GI50: > 100 µM (inactive)
[38]
  GI50: > 100 µM (inactive)
[39]
  GI50: > 100 µM (inactive)
[40]
  GI50: > 100 µM (inactive)
[41]
  GI50: > 100 µM (inactive)
[42]
  GI50: > 100 µM (inactive)
[43]
  GI50: > 100 µM (inactive)
[44]
  GI50: > 100 µM (inactive)
[45]
  GI50: > 100 µM (inactive)
[47]
  GI50: > 100 µM (inactive)
[48]
  GI50: > 100 µM (inactive)
[49]
  GI50: > 100 µM (inactive)
[50]
  GI50: > 100 µM (inactive)
[53]
  GI50: > 100 µM (inactive)
[54]
  GI50: > 100 µM (inactive)

## C=CCc1c(O)c2c(c3oc(=O)cc(C)c13)CC(C)O2 (stereo unspecified)
[2]
  GI50: > 100 µM (inactive)
[3]
  GI50: > 100 µM (inactive)
[4]
  GI50: > 100 µM (inactive)
[5]
  GI50: 50.4 µM (inactive)
[7]
  GI50: 48.6 µM (inactive)
[8]
  GI50: > 100 µM (inactive)
[9]
  GI50: > 100 µM (inactive)
[10]
  GI50: > 100 µM (inactive)
[11]
  GI50: > 100 µM (inactive)
[12]
  GI50: > 100 µM (inactive)
[13]
  GI50: > 100 µM
[14]
  GI50: 86.7 µM (inactive)
[56]
  GI50: 90.2 µM (inactive)
[15]
  GI50: > 100 µM (inactive)
[17]
  GI50: 57.7 µM (inactive)
[18]
  GI50: 20.2 µM (inactive)
[19]
  GI50: > 100 µM (inactive)
[20]
  GI50: > 100 µM (inactive)
[22]
  GI50: 46.3 µM (inactive)
[23]
  GI50: > 100 µM (inactive)
[24]
  GI50: > 100 µM (inactive)
[25]
  GI50: 72.4 µM (inactive)
[26]
  GI50: 56.5 µM (inactive)
[57]
  GI50: > 100 µM (inactive)
[27]
  GI50: 41.5 µM (inactive)
[28]
  GI50: > 100 µM (inactive)
[29]
  GI50: 52.5 µM (inactive)
[30]
  GI50: > 100 µM (inactive)
[58]
  GI50: > 100 µM (inactive)
[31]
  GI50: > 100 µM (inactive)
[32]
  GI50: > 100 µM (inactive)
[33]
  GI50: 65.3 µM (inactive)
[34]
  GI50: 60.8 µM (inactive)
[35]
  GI50: 67.8 µM (inactive)
[36]
  GI50: > 100 µM (inactive)
[37]
  GI50: > 100 µM (inactive)
[38]
  GI50: > 100 µM (inactive)
[40]
  GI50: > 100 µM (inactive)
[41]
  GI50: > 100 µM (inactive)
[42]
  GI50: > 100 µM (inactive)
[43]
  GI50: > 100 µM (inactive)
[44]
  GI50: > 100 µM (inactive)
[45]
  GI50: > 100 µM (inactive)
[46]
  GI50: > 100 µM (inactive)
[47]
  GI50: > 100 µM (inactive)
[48]
  GI50: > 100 µM (inactive)
[49]
  GI50: > 100 µM (inactive)
[50]
  GI50: > 100 µM (inactive)
[51]
  GI50: > 100 µM (inactive)
[52]
  GI50: > 100 µM (inactive)
[53]
  GI50: 68.9 µM (inactive)
